Experimental data published in PubChem BioAssay (NCI).
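Exposure lasted 48 hours, with cells grown in 96-well plates and compounds tested at five concentrations. GI50 marks 50% less growth. Definition used: TGI = concentration required for complete inhibition of growth.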

Experiments:
Test in all cases: NCI anticancer screen, dose series, 48 h; in the data active = GI50 below about 0.43 µM; inactive = the rest
[1] = test system: 786-0 renal
[2] = test system: A498 renal
[3] = test system: A549 NSCLC
[4] = test system: ACHN renal
[5] = test system: CCRF-CEM leukemia
[6] = test system: DLD-1 colon
[7] = test system: DMS 114 small cell lung
[8] = test system: DMS 273 small cell lung
[9] = test system: HCC-2998 colon
[10] = test system: HCT-116 colon
[11] = test system: HCT-15 colon
[12] = test system: HL-60(TB) leukemia
[13] = test system: HOP-18 NSCLC
[14] = test system: HT29 colon
[15] = test system: IGROV1 ovarian
[16] = test system: K-562 leukemia
[17] = test system: KM12 colon
[18] = test system: LOX IMVI melanoma
[19] = test system: LXFL 529 NSCLC
[20] = test system: M14 melanoma
[21] = test system: M19-MEL melanoma
[22] = test system: MALME-3M melanoma
[23] = test system: MOLT-4 leukemia
[24] = test system: NCI-H226 lung
[25] = test system: NCI-H23 lung
[26] = test system: NCI-H460 lung
[27] = test system: NCI-H522 lung
[28] = test system: OVCAR-3 ovarian
[29] = test system: OVCAR-4 ovarian
[30] = test system: OVCAR-8 ovarian
[31] = test system: RXF 393 renal
[32] = test system: SF-268 CNS
[33] = test system: SF-295 CNS
[34] = test system: SF-539 CNS
[35] = test system: SK-MEL-2 melanoma
[36] = test system: SK-MEL-28 melanoma
[37] = test system: SK-MEL-5 melanoma
[38] = test system: SK-OV-3 ovarian
[39] = test system: SN12C renal
[40] = test system: SNB-19 CNS
[41] = test system: SNB-75 CNS
[42] = test system: SNB-78 CNS
[43] = test system: TK-10 renal
[44] = test system: U251 CNS
[45] = test system: UACC-257 melanoma
[46] = test system: UACC-62 melanoma
[47] = test system: UO-31 renal
[48] = test system: CAKI-1 renal
[49] = test system: COLO 205 colon
[50] = test system: EKVX NSCLC
[51] = test system: HOP-62 NSCLC
[52] = test system: HOP-92 NSCLC
[53] = test system: KM20L2 colon
[54] = test system: OVCAR-5 ovarian
[55] = test system: RPMI-8226 leukemia
[56] = test system: SR leukemia
[57] = test system: SW-620 colon
[58] = test system: BT-549 breast
[59] = test system: DU-145 prostate
[60] = test system: HS 578T breast
[61] = test system: MCF7 breast
[62] = test system: MDA-MB-231 breast
[63] = test system: MDA-MB-435
[64] = test system: MDA-N
[65] = test system: NCI/ADR-RES ovarian
[66] = test system: PC-3 prostate
[67] = test system: T-47D breast

CC(=O)[O-].O=[N+]([O-])c1ccc([O-])c(C=NCCN=Cc2cc([N+](=O)[O-])ccc2[O-])c1.[Mn+3]
19.9 µM: TGI [15]
93.3 µM: TGI [27]
> 100 µM: TGI [1] | TGI [2] | TGI [3] | TGI [4] | TGI [5] | TGI [6] | TGI [7] | TGI [8] | TGI [9] | TGI [10] | TGI [11] | TGI [12] | TGI [13] | TGI [14] | TGI [16] | TGI [17] | TGI [18] | TGI [19] | TGI [20] | TGI [21] | TGI [22] | TGI [23] | TGI [24] | TGI [25] | TGI [26] | TGI [28] | TGI [29] | TGI [30] | TGI [31] | TGI [32] | TGI [33] | TGI [34] | TGI [35] | TGI [36] | TGI [37] | TGI [38] | TGI [39] | TGI [40] | TGI [41] | TGI [42] | TGI [43] | TGI [44] | TGI [45] | TGI [46] | TGI [47]
inactive: GI50 [1] > 100 µM | GI50 [2] > 100 µM | GI50 [3] > 100 µM | GI50 [4] > 100 µM | GI50 [5] 33.4 µM | GI50 [6] > 100 µM | GI50 [7] 98 µM | GI50 [8] > 100 µM | GI50 [9] 74.5 µM | GI50 [10] > 100 µM | GI50 [11] > 100 µM | GI50 [12] > 100 µM | GI50 [13] > 100 µM | GI50 [14] > 100 µM | GI50 [15] 2.73 µM | GI50 [16] > 100 µM | GI50 [17] > 100 µM | GI50 [18] 75.8 µM | GI50 [19] > 100 µM | GI50 [20] > 100 µM | GI50 [21] > 100 µM | GI50 [22] > 100 µM | GI50 [23] > 100 µM | GI50 [24] 89.1 µM | GI50 [25] > 100 µM | GI50 [26] > 100 µM | GI50 [27] 31.4 µM | GI50 [28] 63 µM | GI50 [29] > 100 µM | GI50 [30] > 100 µM | GI50 [31] > 100 µM | GI50 [32] > 100 µM | GI50 [33] > 100 µM | GI50 [34] > 100 µM | GI50 [35] > 100 µM | GI50 [36] > 100 µM | GI50 [37] > 100 µM | GI50 [38] > 100 µM | GI50 [39] > 100 µM | GI50 [40] > 100 µM | GI50 [41] > 100 µM | GI50 [42] > 100 µM | GI50 [43] > 100 µM | GI50 [44] > 100 µM | GI50 [45] > 100 µM | GI50 [46] > 100 µM | GI50 [47] > 100 µM

O=C1Cc2ccccc2CCc2ccccc21
> 100 µM: TGI [1] | TGI [2] | TGI [3] | TGI [4] | TGI [48] | TGI [5] | TGI [49] | TGI [6] | TGI [7] | TGI [8] | TGI [50] | TGI [9] | TGI [10] | TGI [11] | TGI [12] | TGI [13] | TGI [51] | TGI [52] | TGI [14] | TGI [15] | TGI [16] | TGI [17] | TGI [53] | TGI [18] | TGI [19] | TGI [20] | TGI [21] | TGI [22] | TGI [23] | TGI [24] | TGI [25] | TGI [26] | TGI [27] | TGI [28] | TGI [29] | TGI [54] | TGI [30] | TGI [55] | TGI [31] | TGI [32] | TGI [33] | TGI [34] | TGI [35] | TGI [36] | TGI [37] | TGI [38] | TGI [39] | TGI [40] | TGI [41] | TGI [42] | TGI [56] | TGI [57] | TGI [43] | TGI [44] | TGI [45] | TGI [46] | TGI [47]

O=C1CCCC2=C1CC1=C(CCCC1=O)N2c1ccc(-c2ccccc2)cc1
> 58.9 µM: TGI [31]
> 67.5 µM: TGI [41]
> 100 µM: TGI [1] | TGI [2] | TGI [3] | TGI [4] | TGI [58] | TGI [48] | TGI [5] | TGI [49] | TGI [59] | TGI [50] | TGI [9] | TGI [10] | TGI [11] | TGI [12] | TGI [51] | TGI [52] | TGI [60] | TGI [14] | TGI [15] | TGI [16] | TGI [17] | TGI [18] | TGI [20] | TGI [22] | TGI [61] | TGI [62] | TGI [63] | TGI [64] | TGI [23] | TGI [24] | TGI [25] | TGI [26] | TGI [27] | TGI [65] | TGI [28] | TGI [29] | TGI [54] | TGI [30] | TGI [66] | TGI [55] | TGI [32] | TGI [33] | TGI [34] | TGI [35] | TGI [36] | TGI [37] | TGI [38] | TGI [39] | TGI [40] | TGI [56] | TGI [57] | TGI [67] | TGI [43] | TGI [44] | TGI [45] | TGI [46] | TGI [47]
